Data on two compounds can be found in US20120220564A1, “SELECTIVE CALCIUM CHANNEL MODULATORS” (Zalicus Pharmaceuticals Ltd., priority 2009, published 2012).

In one data set the target is T1, α1H (CaV 3.2) (Homo sapiens, UniProt O95180).
T1 construct: expressed in transfected cells; host or cells: HEK 293
Kind of data set: T-type calcium channel block, whole cell patch clamp. The format is cell-based. To be noted: HEK cells, mainly non-inactivated protocol; values above 10,000 nM represented as 10000. The method, boiled down: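 HEK293 cells stably expressing human T-type channels, whole-cell patch clamp; compounds in external solution with 0.1-0.01% DMSO, applied by gravity. Mainly non-inactivating protocol: holding −110 mV, 1 s pre-pulse −100 mV, 50 ms test pulse −40 mV (inactivated protocol uses ~−85 mV pre-pulse); IC50 reported.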
Background: In patch-clamp work, channel activity is measured electrically.

Data set [1] deals with Rat SNL tactile allodynia. In words: L5/L6 spinal nerve ligation (SNL) Chung pain model, tactile allodynia (von Frey). The following applies: for % Antiallodynia (Mean ± SD): 30 mg/kg PO, n = 7-8; for anti-allodynia effects: second repetition of the study, n=9. The class given is in vivo. From the text:
The Spinal Nerve Ligation is an animal model representing peripheral nerve injury generating a neuropathic pain syndrome. In this model experimental animals develop the clinical symptoms of tactile allodynia and hyperalgesia. L5/L6 Spinal nerve ligation (SNL) injury was induced using the procedure of Kim and Chung (Kim et al., Pain 50:355-363 (1992)) in male Sprague-Dawley rats (Harlan; Indianapolis, Ind.) weighing 200 to 250 grams.
Anaesthesia was induced with 2% isofluorane in O2 at 2 L/min and maintained with 0.5% isofluorane in O2. Rats were then shaved and aseptically prepared for surgeries. A 2 cm paraspinal incision was made at the level of L4-S2. L4/L5 was exposed by removing the transverse process above the nerves with a small rongeur. The L5 spinal nerve is the larger of the two visible nerves below the transverse process and lies closest to the spine. The L6 spinal nerve is located beneath the corner of the slope bone. A home-made glass Chung rod was used to hook L5 or L6 and a pre-made slip knot of 4.0 silk suture was placed on the tip of the rod just above the nerve and pulled underneath to allow for the tight ligation. The L5 and L6 spinal nerves were tightly ligated distal to the dorsal root ganglion. The incision was closed, and the animals were allowed to recover for 5 days.
Sham control rats underwent the same operation and handling as the experimental animals, but without SNL.
Prior to initiating drug delivery, baseline behavioural testing data is obtained. At selected times after infusion of the Test or Control Article behavioural data can then be collected again.
The assessment of tactile allodynia consisted of measuring the withdrawal threshold of the paw ipsilateral to the site of nerve injury in response to probing with a series of calibrated von Frey filaments (innocuous stimuli). Animals were acclimated to the suspended wire-mesh cages for 30 min before testing. Each von Frey filament was applied perpendicularly to the plantar surface of the ligated paw of rats for 5 sec. A positive response was indicated by a sharp withdrawal of the paw. For rats, the first testing filament is 4.31. Measurements were taken before and after administration of test articles. […] The protocol was repeated until three changes in behaviour were determined (“up and down” method) (Chaplan et al., J. Neurosci. Methods 53:55-63 (1994)). The 50% paw withdrawal threshold was determined as (10^[Xf+kδ])/10,000, where Xf=the value of the last von Frey filament employed, k=Dixon value for the positive/negative pattern, and δ=the logarithmic difference between stimuli. The cut-off values for rats were no less than 0.2 g and no higher than 15 g (5.18 filament); for mice no less than 0.03 g and no higher than 2.34 g (4.56 filament). A significant drop of the paw withdrawal threshold compared to the pre-treatment baseline is considered tactile allodynia.

For the next data set, the system named is 6 Hz psychomotor seizure. In words: 6 Hz psychomotor seizure model of partial epilepsy. Also on record: concentration or dose not given beside the values. The class given is in vivo, mice. From the text:
Compounds can also be evaluated for the protection against seizures induced by a 6 Hz, 0.2 ms rectangular pulse width of 3 s duration, at a stimulus intensity of 32 mA (CC97) applied to the cornea of male CF1 mice (20-30 g) according to procedures described by Barton et al, “Pharmacological Characterization of the 6 Hz Psychomotor Seizure Model of Partial Epilepsy,” Epilepsy Res. 47(3):217-27 (2001). Seizures are characterised by the expression of one or more of the following behaviours: stun, forelimb clonus, twitching of the vibrissae and Straub-tail immediately following electrical stimulation.

Data set [2] has as its system minimal muscular or neurological impairment (rotarod). Kind of data set: Mouse rotarod assay. The format is in vivo, mice. The method, then: To assess a compound's undesirable side effects (toxicity), animals can be monitored for overt signs of impaired neurological or muscular function. In mice, the rotarod procedure (Dunham and Miya, J. Am. Pharmacol. Assoc. 46:208-209 (1957)) is used to disclose minimal muscular or neurological impairment (MMI). When a mouse is placed on a rod that rotates at a speed of 6 rpm, the animal can maintain its equilibrium for long periods of time. The animal is considered toxic if it falls off this rotating rod three times during a 1-min period.

T1 sequence (O95180 whole entry): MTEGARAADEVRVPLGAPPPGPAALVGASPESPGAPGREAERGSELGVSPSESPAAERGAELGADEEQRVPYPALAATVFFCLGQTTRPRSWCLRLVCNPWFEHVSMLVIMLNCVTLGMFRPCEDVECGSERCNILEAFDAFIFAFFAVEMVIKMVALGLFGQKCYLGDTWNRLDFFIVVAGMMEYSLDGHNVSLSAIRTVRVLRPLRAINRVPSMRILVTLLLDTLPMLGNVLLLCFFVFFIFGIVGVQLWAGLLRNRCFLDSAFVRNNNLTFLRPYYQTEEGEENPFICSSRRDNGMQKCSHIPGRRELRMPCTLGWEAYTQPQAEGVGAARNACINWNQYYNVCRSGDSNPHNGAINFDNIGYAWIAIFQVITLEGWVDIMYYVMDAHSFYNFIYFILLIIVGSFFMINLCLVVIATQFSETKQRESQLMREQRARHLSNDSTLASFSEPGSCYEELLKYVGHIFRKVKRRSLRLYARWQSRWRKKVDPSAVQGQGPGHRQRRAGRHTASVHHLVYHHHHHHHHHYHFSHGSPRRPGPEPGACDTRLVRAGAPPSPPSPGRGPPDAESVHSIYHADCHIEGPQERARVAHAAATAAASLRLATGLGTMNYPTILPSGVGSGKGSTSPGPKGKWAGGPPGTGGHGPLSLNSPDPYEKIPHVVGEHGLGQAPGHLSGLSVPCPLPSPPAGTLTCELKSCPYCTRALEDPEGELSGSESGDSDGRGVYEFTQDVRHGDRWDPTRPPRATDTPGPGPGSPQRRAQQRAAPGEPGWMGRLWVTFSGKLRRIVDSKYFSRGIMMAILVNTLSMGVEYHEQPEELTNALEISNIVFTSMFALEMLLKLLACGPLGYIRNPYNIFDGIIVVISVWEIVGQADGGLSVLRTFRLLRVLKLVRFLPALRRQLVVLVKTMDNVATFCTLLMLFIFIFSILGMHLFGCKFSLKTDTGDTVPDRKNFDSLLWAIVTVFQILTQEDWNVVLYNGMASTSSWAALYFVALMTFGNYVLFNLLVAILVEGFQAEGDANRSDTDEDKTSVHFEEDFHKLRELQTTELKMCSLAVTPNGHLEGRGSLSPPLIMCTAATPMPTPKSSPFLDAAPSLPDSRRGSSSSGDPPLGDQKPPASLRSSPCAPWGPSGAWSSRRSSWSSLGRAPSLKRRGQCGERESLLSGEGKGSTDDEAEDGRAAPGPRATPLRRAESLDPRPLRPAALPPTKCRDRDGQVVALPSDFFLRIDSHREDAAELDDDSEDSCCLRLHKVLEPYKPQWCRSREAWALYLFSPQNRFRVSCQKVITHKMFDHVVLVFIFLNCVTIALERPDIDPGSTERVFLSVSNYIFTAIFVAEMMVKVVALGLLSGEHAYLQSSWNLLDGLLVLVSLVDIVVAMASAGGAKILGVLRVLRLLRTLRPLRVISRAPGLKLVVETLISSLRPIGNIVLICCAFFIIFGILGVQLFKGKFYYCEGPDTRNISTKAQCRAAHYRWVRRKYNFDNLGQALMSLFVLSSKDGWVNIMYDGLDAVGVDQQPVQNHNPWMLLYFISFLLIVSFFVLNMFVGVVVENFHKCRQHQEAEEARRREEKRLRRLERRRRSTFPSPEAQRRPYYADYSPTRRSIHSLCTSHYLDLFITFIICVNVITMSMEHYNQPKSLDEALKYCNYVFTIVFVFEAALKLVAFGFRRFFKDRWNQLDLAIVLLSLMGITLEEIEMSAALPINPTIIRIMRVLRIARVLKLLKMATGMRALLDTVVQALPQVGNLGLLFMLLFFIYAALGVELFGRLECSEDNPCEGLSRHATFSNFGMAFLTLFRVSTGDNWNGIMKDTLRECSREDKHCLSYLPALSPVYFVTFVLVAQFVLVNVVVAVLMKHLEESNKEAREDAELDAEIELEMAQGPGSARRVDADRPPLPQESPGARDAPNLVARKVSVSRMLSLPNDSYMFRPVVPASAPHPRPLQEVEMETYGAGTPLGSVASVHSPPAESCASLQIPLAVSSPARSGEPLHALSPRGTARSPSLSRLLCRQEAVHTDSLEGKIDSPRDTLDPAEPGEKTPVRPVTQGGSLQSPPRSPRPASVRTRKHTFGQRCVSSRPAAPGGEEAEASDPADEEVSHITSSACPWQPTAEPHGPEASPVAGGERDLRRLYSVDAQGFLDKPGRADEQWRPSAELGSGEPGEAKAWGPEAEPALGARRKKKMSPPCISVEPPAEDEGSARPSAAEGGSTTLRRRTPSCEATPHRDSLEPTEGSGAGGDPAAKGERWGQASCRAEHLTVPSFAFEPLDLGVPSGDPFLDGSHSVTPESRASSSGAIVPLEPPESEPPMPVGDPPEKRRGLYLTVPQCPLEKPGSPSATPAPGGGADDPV

For the compound `N[C@@H]1CCCC[C@H]1C(=O)N1CCC(CC(=O)Nc2cc(C(F)(F)F)cc(C(F)(F)F)c2)CC1` (racemic) [Compound 3, trans-2-(1-(2-aminocyclohexanecarbonyl)piperidin-4-yl)-N-(3,5-bis(trifluoromethyl)phenyl)acetamide], the IC50 on α1H (CaV 3.2) is 60 nM. Besides, the “% Antiallodynia (Mean ± SD)” value worked out at 36 ± 19 % in data set [1] (1 h) and 4 ± 8% in data set [1] (4 h). Also, the anti-allodynia effects in data set [1] (1 hr) was 68±12%; in data set [1] (2 hr), 76±6%; in data set [1] (4 hr), 42±14%. Further, the “Epilepsy 6 Hz (% Protected)” value worked out at 100% in the data set on 6 Hz psychomotor seizure (0.25 hr); 75% in the data set with 6 Hz psychomotor seizure (0.5 hr); 100% in the data set on 6 Hz psychomotor seizure (1 hr); 0% with 6 Hz psychomotor seizure (2 hr); 50% with 6 Hz psychomotor seizure (4 hr). The “Rotarod Assay (% impaired)” value is listed as 0% in data set [2] (0.25 hr); 75% in data set [2] (0.5 hr); 100% in data set [2] (1 hr); 75% in data set [2] (2 hr); 50% in data set [2] (4 hr).

Regarding “N-(3,5- bis(trifluoromethyl) phenyl)-2-(1- (piperidine-3- carbonyl)piperidin-4- yl)acetamide [Compound 2]”, the concentration for half-maximal inhibition (IC50) on α1H (CaV 3.2) was 350 nM. In addition, the “Rat SNL tactile allodynia (% antiallodynia)” value is 38% in data set [1] (1 hr), 44% in data set [1] (2 hr) and 27% in data set [1] (4 hr). Also, the “Epilepsy 6 Hz (% Protected)” value in the data set on 6 Hz psychomotor seizure (0.25 hr) is reported as 50%; in the data set on 6 Hz psychomotor seizure (0.5 hr), 50%; in the data set on 6 Hz psychomotor seizure (1 hr) it was 100%; in the data set on 6 Hz psychomotor seizure (2 hr) it was 33%; with 6 Hz psychomotor seizure (4 hr) it was 0%. Moreover, the “Rotarod Assay (% impaired)” value in data set [2] (0.25 hr) is on record as 25%; in data set [2] (0.5 hr), 50%; in data set [2] (1 hr), 100%; in data set [2] (2 hr), 100%; in data set [2] (4 hr), 50%.

For orientation: IC50 means the midpoint of a concentration-inhibition curve.
